# Assay results taken from publication PMC8550792, “Evolution of kinase polypharmacology across HSP90 drug discovery” (Cell Chemical Biology, 2021).
# Several values for one entry are separate records, joined by “and”; a condition that tells them apart may be missing. Identical values can stand only once. Like-named read-outs stand apart in the source and are kept apart here.
# Tests used:
# Assay in all cases: biochemical
# Assay type in all cases: biochemical
# 382 unique human kinases [1] = biological target: T1, 382 unique human kinases (Homo sapiens, UniProt P50750); conditions: for remaining activity at 10 µM: read-out: % Enzyme Activity (relative to DMSO controls)
# T1 construct: purchased Reaction Biology (HotSpot contract assay)
# 382 unique human kinases [2] = biological target: T2, 382 unique human kinases (Homo sapiens, UniProt P24941); conditions: for remaining activity at 10 µM: read-out: % Enzyme Activity (relative to DMSO controls)
# T2 construct: purchased Reaction Biology (HotSpot contract assay)
# 382 unique human kinases [3] = biological target: T3, 382 unique human kinases (Homo sapiens, UniProt Q00534); conditions: kinase CDK6/cyclin D1, compound 10 uM
# T3 construct: purchased Reaction Biology (HotSpot contract assay)
# 382 unique human kinases [4] = test system: 382 unique human kinases
# 382 unique human kinases [5] = biological target: T4, 382 unique human kinases (Homo sapiens, UniProt P11802); conditions: CDK4/cyclin D1, 10 uM
# T4 construct: purchased Reaction Biology (HotSpot contract assay)
# [6] = kinase CDK9/cyclin K, compound 10 uM
# [7] = kinase CDK2/cyclin O, compound 10 uM
# [8] = read-out: % Enzyme Activity (relative to DMSO controls)
# T1 sequence (P50750 whole entry): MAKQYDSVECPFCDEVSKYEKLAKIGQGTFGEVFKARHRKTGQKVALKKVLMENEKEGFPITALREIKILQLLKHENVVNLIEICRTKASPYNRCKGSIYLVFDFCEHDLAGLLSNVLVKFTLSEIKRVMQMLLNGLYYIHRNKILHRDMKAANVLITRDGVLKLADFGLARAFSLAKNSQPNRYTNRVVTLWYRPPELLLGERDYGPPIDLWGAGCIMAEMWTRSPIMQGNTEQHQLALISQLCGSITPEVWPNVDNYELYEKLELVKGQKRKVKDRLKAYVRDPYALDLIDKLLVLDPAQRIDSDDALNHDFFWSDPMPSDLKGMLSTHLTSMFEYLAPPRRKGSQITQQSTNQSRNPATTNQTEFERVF
# T3 sequence (Q00534 whole entry): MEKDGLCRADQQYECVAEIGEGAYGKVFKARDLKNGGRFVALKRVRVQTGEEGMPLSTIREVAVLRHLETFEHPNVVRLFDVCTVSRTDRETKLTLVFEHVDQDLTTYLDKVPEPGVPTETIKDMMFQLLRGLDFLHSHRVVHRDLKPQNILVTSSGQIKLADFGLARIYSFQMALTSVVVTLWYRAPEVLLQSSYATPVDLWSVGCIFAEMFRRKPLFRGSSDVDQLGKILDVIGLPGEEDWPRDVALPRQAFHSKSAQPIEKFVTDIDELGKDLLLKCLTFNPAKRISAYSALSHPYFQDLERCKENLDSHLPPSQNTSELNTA
# T4 sequence (P11802 whole entry): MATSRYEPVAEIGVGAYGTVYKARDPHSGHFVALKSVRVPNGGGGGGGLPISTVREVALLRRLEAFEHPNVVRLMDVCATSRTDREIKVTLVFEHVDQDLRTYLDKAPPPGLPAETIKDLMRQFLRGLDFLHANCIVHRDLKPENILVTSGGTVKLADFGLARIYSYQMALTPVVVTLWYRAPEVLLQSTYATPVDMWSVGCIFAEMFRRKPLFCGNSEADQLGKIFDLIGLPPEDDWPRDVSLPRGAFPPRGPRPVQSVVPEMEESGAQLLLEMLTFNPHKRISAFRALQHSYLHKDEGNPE
structure (smiles),measurement,setting,value
CCNC(=O)c1noc(-c2cc(C(C)C)c(O)cc2O)c1-c1ccc(CN2CCOCC2)cc1 [Luminespib (AUY-922)],% Enzyme Activity (relative to DMSO controls),"382 unique human kinases [1]; CDK9/cyclin T2, 10 uM",89.68%
same,remaining activity at 10 µM,"382 unique human kinases [1]; CDK9/cyclin T2, 10 uM",89.7%
same,% Enzyme Activity (relative to DMSO controls),382 unique human kinases [1]; [6],104.02%
same,remaining activity at 10 µM,382 unique human kinases [1]; [6],104%
same,% Enzyme Activity (relative to DMSO controls),"382 unique human kinases [2]; CDK2/cyclin A, 10 uM",97.81%
same,remaining activity at 10 µM,"382 unique human kinases [2]; CDK2/cyclin A, 10 uM",97.9%
same,% Enzyme Activity (relative to DMSO controls),382 unique human kinases [2]; [7],100.70%
same,remaining activity at 10 µM,382 unique human kinases [2]; [7],101%
same,% Enzyme Activity (relative to DMSO controls),382 unique human kinases [3],105.58%
same,remaining activity at 10 µM,382 unique human kinases [3]; [8],106%
same,% Enzyme Activity (relative to DMSO controls),"382 unique human kinases [4]; ALK (F1174L)-EML4, 10 uM",85.87% and 84.56%
same,% Enzyme Activity (relative to DMSO controls),"382 unique human kinases [4]; ALK (F1174L)-NPM1, 10 uM",102.87% and 100.42%
same,% Enzyme Activity (relative to DMSO controls),"382 unique human kinases [4]; ALK-NPM1, 10 uM",100.77% and 99.39%
same,% Enzyme Activity (relative to DMSO controls),"382 unique human kinases [4]; ALK-TFG, 10 uM",100.17% and 98.13%
same,% Enzyme Activity (relative to DMSO controls),"382 unique human kinases [4]; BRAF (R506_K507insVLR), compound at 10 uM, duplicate values",111.39% and 111.37%
same,% Enzyme Activity (relative to DMSO controls),"382 unique human kinases [4]; BRAF (d485-489/P490Y), compound at 10 uM, duplicate values",105.00% and 104.80%
same,% Enzyme Activity (relative to DMSO controls),"382 unique human kinases [4]; BRAF-KIAA1549 (Kex15Bex9), compound at 10 uM, duplicate values",106.11% and 102.92%
same,% Enzyme Activity (relative to DMSO controls),"382 unique human kinases [4]; BRAF-KIAA1549 (Kex16Bex9), compound at 10 uM, duplicate values",104.70% and 104.59%
same,% Enzyme Activity (relative to DMSO controls),"382 unique human kinases [4]; BRAF-SRGAP3 (Sex12Bex9), compound at 10 uM, duplicate values",107.79% and 106.99%
same,% Enzyme Activity (relative to DMSO controls),"382 unique human kinases [4]; PDGFRb-TPM3, 10 uM",63.63% and 61.80%
same,% Enzyme Activity (relative to DMSO controls),"382 unique human kinases [4]; PKG1b, 10 uM",60.28% and 59.59%
same,% Enzyme Activity (relative to DMSO controls),"382 unique human kinases [4]; RET-CCDC6 (PTC1), 10 uM",105.26% and 102.15%
same,% Enzyme Activity (relative to DMSO controls),"382 unique human kinases [4]; RET-NCOA4 (PTC3), 10 uM",95.03% and 94.64%
same,% Enzyme Activity (relative to DMSO controls),"382 unique human kinases [4]; RET-PRKAR1A (PTC2), 10 uM",95.60% and 94.13%
same,% Enzyme Activity (relative to DMSO controls),"382 unique human kinases [4]; ROS1-TPM3, 10 uM",97.28% and 96.49%
same,% Enzyme Activity (relative to DMSO controls),"382 unique human kinases [4]; kinase EGFR (A763_Y764insFHEA), compound 10 uM",98.66% and 97.53%
same,% Enzyme Activity (relative to DMSO controls),"382 unique human kinases [4]; kinase EGFR (D770GY), compound 10 uM",129.18% and 126.54%
same,% Enzyme Activity (relative to DMSO controls),"382 unique human kinases [4]; kinase EGFR (D770_N771insNPG), compound 10 uM",106.12% and 103.12%
same,% Enzyme Activity (relative to DMSO controls),"382 unique human kinases [4]; kinase EGFR (d746), compound 10 uM",98.75% and 97.31%
same,% Enzyme Activity (relative to DMSO controls),"382 unique human kinases [4]; kinase EGFR (d746-750/T790M/C797S), compound 10 uM",100.68% and 100.47%
same,% Enzyme Activity (relative to DMSO controls),"382 unique human kinases [4]; kinase EGFR (d747-752/P753S), compound 10 uM",98.74% and 98.40%
same,% Enzyme Activity (relative to DMSO controls),"382 unique human kinases [4]; kinase ERBB2 (P780_Y781insGSP), compound 10 uM",96.69% and 95.30%
same,% Enzyme Activity (relative to DMSO controls),"382 unique human kinases [4]; kinase KSR1 (L639F), compound 10 uM",103.34% and 102.74%
same,% Enzyme Activity (relative to DMSO controls),"382 unique human kinases [4]; kinase PDGFRa-FIP1L1, compound 10 uM",98.64% and 97.51%
same,% Enzyme Activity (relative to DMSO controls),"382 unique human kinases [4]; kinase RET-BCR, compound 10 uM",97.53% and 96.48%
same,% Enzyme Activity (relative to DMSO controls),382 unique human kinases [5],100.66%
same,remaining activity at 10 µM,382 unique human kinases [5]; [8],103%
